{
  "source": "BindingDB's records for doi:10.1016/s0014-2999(97)01510-0",
  "about": "(Hospital Saint-Antoine, 1998)",
  "molecular_target": "T1, 5'-nucleotidase (Rattus norvegicus, UniProt P21588)",
  "T1 sequence (P21588 whole entry)": "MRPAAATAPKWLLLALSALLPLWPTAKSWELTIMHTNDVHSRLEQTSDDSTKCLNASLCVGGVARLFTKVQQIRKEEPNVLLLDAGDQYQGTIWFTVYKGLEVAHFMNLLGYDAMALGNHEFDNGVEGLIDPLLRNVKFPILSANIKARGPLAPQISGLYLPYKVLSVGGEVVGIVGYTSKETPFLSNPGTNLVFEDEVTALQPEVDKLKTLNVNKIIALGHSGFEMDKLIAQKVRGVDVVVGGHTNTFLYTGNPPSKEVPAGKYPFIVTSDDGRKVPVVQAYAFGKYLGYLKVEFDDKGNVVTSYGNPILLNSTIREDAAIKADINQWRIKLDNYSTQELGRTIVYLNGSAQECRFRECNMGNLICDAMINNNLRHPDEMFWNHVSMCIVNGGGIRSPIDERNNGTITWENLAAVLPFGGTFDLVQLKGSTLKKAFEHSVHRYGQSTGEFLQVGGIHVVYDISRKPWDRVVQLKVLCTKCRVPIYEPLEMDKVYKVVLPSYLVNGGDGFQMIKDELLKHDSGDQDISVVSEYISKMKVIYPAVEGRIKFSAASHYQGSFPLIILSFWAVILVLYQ",
  "data": [
    {"compound": "COc1cccc(OC)c1-c1cc(C(=O)NC2(C(=O)O)C3CC4CC(C3)CC2C4)nn1-c1ccnc2cc(Cl)ccc12", "note": "(stereo unspecified)", "values": [
      {"measurement": "Ki", "result": 124, "unit": "nM"}
    ]}
  ]
}
